{"source": "ChEMBL document CHEMBL1909608", "about": "“Actinopolysporins A-C and tubercidin as a Pdcd4 stabilizer from the halophilic actinomycete Actinopolyspora erythraea YIM 90600” (J Nat Prod, 2011)", "assay_type_in_all_cases": "cell-based", "key": {"[1]": {"system": "HEK293", "experiment": "Cytotoxicity against human HEK293 cells"}, "[2]": {"target": "T1, Programmed cell death protein 4 (Homo sapiens) (UniProt Q53EL6)", "T1 sequence (whole entry)": "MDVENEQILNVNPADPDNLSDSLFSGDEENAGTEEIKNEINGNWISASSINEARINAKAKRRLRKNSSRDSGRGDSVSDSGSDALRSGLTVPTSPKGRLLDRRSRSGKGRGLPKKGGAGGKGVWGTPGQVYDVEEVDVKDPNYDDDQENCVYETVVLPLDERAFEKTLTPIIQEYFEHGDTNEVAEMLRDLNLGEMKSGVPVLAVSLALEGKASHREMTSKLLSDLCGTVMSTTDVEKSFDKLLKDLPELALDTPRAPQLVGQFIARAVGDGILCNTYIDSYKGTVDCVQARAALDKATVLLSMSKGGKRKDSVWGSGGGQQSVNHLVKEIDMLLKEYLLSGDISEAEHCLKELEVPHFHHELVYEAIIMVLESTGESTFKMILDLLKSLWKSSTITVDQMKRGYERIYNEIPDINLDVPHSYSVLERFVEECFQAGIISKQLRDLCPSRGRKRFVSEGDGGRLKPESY", "experiment": "Stabilization of Pdcd4 expressed in TPA-stimulated human HEK293 cells at 2.5 uM by luciferase reporter assay"}, "[3]": {"target": "T1, Programmed cell death protein 4 (Homo sapiens)", "experiment": "Stabilization of Pdcd4 expressed in human HEK293 cells assessed as inhibition of TPA-induced degradation by luciferase reporter assay"}}, "note": "Calls of active or inactive are those of the source. No cut-off for these calls is given here.", "data": [{"smiles": "Nc1ncnc2c1ccn2[C@@H]1O[C@H](CO)[C@@H](O)[C@H]1O", "note": "[TUBERCIDIN]", "values": [{"measurement": "Activity", "setting": "[1]", "value": "> 2.5", "unit": "µM"}, {"measurement": "max activation", "setting": "[2]", "value": 94.2, "unit": "%"}]}, {"smiles": "CCC(=O)/C(C)=C/C(C)CC(C)CC(C)(O)CC", "note": "(stereo not given)", "values": [{"measurement": "inhibition", "setting": "[3]", "value": "inactive"}]}, {"smiles": "COC(=O)/C(C)=C/C(C)CC(C)CC(C)(O)C(C)O", "note": "(stereo not given)", "values": [{"measurement": "inhibition", "setting": "[3]", "value": "inactive"}]}, {"smiles": "COC(=O)/C(C)=C/C(C)CC(C)CC(C)(O)CC(C)O", "note": "(stereo not given)", "values": [{"measurement": "inhibition", "setting": "[3]", "value": "inactive"}]}]}
